Assay results published in patent publication US20250243196A1, “CITRON KINASE INHIBITORS” (The Cleveland Clinic Foundation, priority 2021, published 2025).
pIC50: −log10 of the molar value. Where two headings read alike, the source gives them in different places. Each block holds one molecule with its values, some of them ahead of it.

Tests used:
Citron kinase = Citron kinase (Homo sapiens (Human), UniProt O14578); assay: Radiometric citron kinase assay (Eurofins Cat #16-040KP); type: biochemical
In short: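 Radiometric KinaseProfiler format: test compound incubated with kinase, substrate, cofactors and radiolabelled ATP; unreacted ATP washed away and radiolabelled phosphate incorporated into substrate measured. IC50 derived from inhibition of phosphorylation. Values are means of at least two independent assays.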

[1] = molecular target: NanoLuc-CITK (full-length human CITK) (Homo sapiens (Human), UniProt O14578); assay: NanoBRET intracellular target engagement assay; type: cell-based
Method: In-cell Kd values were evaluated with a NanoBRET Target Engagement Assay essentially as recommended by the manufacturer (Promega Corporation—for details see https://www.promega.com/resources/technologies/nanoluc-luciferase-enzyme/cellular-target-engagement/).
HEK293T cells were transfected with 5.0 μg/mL sterile NanoLuc-CITK DNA, 5.0 μg/mL Transfection Carrier DNA, and 30 μL/mL FugeneHD® (Promega) in Opti-Mem™ (Thermo) media at a cell density of 250,000 cells/mL. […] 5 μL of the 25× Tracer K10 solution was added to each well. Next, designated inhibitors were prepared from powder as 10 mM DMSO stocks and then further diluted to 10× the final assay concentration in Opti-Mem™. 12-pt dose-response curves were prepared by 3×-serial dilution. […] A 3× Complete Substrate+Inhibitor solution, containing 6 mL of Opti-Mem™, 36 μL of NanoBRET Nano-Glo Substrate, and 12 μL Extracellular NanoLuc Inhibitor was freshly prepared for each plate. 50 μL of the 3× Complete Substrate+Inhibitor solution was added to all wells and the plate was incubated for 2 min with 500 RPM shaking. The bottom of the plates were covered with black plate seals and then measured on a Cytation 5 plate reader (Biotek) with a NanoBRET Filter Cube (Biotek; 450/50 emission & 610LP emission). Background corrected BRET ratios (in mBU) were calculated in Excel and IC50's were subsequently extracted using four-parameter non-linear regression in GraphPad Prism 8.

IKKβ = IKKβ (Homo sapiens (Human), UniProt O14920); assay: KinaseProfiler radiometric assay (14-485KP); type: biochemical; details: mean of at least two independent experiments
Description: (§1) In another aspect, disclosed is a method of inhibiting citron kinase in a sample, comprising contacting the sample with a compound described herein (e.g., a compound of formula (I) or a pharmaceutically acceptable salt thereof), or a pharmaceutical composition described herein (e.g., a pharmaceutical composition comprising a compound of formula (I) or a pharmaceutically acceptable salt thereof), in an amount effective to inhibit citron kinase. In some embodiments, the step of contacting the sample with the compound comprises administering the compound to a subject (e.g., a subject) suffering from cancer. Methods of determining kinase inhibition are well known in the art. For example, kinase activity of an enzyme and the inhibitory capacity of a test compound can be determined by measuring enzyme specific phosphorylation of a substrate. Commercial assays and kits can be employed. For example, kinase inhibition can be determined using a radiometric binding assay, such as using KinaseProfiler™ technology (Eurofins Discovery). This assay method directly detects product formation without the use of modified substrates or coupling enzymes. Test compounds are incubated with kinase, substrate, required cofactors and radioisotope labeled ATP. Following incubation, unreacted radioactive ATP is removed by washing and incorporation of the radiolabeled phosphate into the kinase substrate is assayed to detect phosphoryltransferase activity, which is directly proportional to the amount of phosphorylated substrate. Inhibition of the kinase by a kinase inhibitor prevents phosphorylation of the substrate and thereby limits the incorporation of radiolabeled phosphate. Such an assay is compatible with a microwell assay format, allowing simultaneous determination of IC50 of multiple compounds.
(§2) The effect of various compounds on the inhibition of other kinases has also been determined. Table 2 reports measured IC50 values; value units are nanomolar inhibition.

PKAα = PKAα (Homo sapiens (Human), UniProt P17612); assay: KinaseProfiler radiometric assay (14-440KP); type: biochemical; details: mean of at least two independent experiments
Description: as §1, §2

ROCK-2 = ROCK-2 (Homo sapiens (Human), UniProt O75116); assay: KinaseProfiler radiometric assay (14-451KP); type: biochemical; details: mean of at least two independent experiments
Description: as §1, §2

[2] = HEK293T cells transfected with NanoLuc-CITK, Tracer K10 1 μM, 2 hours
[3] = mean of at least two independent assays, read-out: Radiometric CitK IC50

Sequence of NanoLuc-CITK (full-length human CITK) (O14578 other isoform, or with tags, fused parts or gaps): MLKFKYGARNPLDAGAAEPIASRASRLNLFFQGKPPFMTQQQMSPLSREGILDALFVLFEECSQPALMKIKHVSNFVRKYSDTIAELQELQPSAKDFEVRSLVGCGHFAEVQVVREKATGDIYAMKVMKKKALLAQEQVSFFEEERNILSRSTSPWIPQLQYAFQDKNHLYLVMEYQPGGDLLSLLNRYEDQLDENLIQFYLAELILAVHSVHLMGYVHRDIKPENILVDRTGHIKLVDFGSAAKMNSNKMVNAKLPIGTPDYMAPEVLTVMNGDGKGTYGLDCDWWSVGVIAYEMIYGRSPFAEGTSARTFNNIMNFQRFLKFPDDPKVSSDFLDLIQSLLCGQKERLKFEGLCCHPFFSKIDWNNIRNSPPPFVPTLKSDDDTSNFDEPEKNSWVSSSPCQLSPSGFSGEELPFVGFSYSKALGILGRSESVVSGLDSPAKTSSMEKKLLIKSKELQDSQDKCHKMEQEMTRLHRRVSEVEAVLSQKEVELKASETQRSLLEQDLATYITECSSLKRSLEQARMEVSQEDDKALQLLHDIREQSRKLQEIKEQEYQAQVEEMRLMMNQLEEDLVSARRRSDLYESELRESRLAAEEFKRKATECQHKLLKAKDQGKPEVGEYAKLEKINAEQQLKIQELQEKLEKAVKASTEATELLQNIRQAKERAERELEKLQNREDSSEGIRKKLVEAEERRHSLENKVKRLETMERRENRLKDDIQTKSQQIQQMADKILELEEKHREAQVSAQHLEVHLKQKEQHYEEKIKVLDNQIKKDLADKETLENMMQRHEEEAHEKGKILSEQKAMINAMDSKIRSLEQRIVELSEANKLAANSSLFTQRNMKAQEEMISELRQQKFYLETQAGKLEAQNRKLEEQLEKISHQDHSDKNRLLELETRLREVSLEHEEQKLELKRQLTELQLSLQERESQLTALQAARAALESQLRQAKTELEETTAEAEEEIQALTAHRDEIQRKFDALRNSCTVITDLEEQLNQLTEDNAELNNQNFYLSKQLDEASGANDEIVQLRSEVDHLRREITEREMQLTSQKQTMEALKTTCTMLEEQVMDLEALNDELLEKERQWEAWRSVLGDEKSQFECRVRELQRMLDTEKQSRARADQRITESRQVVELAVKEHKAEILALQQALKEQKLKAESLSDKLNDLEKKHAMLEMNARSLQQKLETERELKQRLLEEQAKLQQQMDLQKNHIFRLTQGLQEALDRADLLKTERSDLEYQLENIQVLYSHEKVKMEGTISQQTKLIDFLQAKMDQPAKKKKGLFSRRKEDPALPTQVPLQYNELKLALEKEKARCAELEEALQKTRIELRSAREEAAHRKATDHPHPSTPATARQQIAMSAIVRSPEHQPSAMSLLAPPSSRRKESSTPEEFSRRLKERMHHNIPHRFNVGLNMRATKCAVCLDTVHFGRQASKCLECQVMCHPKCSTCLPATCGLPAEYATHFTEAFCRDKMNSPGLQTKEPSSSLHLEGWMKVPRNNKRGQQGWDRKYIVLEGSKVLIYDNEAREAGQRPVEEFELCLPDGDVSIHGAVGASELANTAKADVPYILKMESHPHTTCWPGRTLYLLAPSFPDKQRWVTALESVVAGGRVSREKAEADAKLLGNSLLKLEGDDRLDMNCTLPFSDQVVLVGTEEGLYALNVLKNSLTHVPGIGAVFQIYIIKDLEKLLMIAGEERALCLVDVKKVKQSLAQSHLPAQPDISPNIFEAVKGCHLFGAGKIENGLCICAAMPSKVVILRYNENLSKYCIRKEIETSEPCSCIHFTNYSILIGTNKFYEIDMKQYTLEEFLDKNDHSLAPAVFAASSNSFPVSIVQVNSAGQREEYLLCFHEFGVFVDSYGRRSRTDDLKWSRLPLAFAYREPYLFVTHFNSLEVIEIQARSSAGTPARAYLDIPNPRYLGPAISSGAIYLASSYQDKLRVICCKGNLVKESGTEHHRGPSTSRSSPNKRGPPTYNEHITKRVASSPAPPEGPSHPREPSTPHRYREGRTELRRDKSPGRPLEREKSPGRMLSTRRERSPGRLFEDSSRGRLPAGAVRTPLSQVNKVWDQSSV
Sequence of IKKβ (O14920 whole entry): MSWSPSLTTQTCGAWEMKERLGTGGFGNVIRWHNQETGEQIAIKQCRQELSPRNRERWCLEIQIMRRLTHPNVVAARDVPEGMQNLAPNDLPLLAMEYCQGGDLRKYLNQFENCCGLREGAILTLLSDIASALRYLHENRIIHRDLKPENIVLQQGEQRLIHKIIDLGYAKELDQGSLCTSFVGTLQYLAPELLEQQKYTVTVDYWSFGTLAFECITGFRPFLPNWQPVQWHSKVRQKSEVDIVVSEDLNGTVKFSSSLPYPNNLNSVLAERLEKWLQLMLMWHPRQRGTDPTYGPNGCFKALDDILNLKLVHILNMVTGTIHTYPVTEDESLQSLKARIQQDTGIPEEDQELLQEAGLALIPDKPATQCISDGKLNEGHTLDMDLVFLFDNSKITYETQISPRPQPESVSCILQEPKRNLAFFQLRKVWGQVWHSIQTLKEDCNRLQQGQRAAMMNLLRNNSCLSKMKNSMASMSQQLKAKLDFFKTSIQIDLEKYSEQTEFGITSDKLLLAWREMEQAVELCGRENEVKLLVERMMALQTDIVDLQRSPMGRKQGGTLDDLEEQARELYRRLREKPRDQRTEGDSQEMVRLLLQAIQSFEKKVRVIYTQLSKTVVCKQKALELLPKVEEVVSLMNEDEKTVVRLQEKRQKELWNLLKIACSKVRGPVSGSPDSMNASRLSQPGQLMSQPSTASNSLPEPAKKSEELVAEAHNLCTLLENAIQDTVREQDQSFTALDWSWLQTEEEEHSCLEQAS
Sequence of Citron kinase (O14578 whole entry): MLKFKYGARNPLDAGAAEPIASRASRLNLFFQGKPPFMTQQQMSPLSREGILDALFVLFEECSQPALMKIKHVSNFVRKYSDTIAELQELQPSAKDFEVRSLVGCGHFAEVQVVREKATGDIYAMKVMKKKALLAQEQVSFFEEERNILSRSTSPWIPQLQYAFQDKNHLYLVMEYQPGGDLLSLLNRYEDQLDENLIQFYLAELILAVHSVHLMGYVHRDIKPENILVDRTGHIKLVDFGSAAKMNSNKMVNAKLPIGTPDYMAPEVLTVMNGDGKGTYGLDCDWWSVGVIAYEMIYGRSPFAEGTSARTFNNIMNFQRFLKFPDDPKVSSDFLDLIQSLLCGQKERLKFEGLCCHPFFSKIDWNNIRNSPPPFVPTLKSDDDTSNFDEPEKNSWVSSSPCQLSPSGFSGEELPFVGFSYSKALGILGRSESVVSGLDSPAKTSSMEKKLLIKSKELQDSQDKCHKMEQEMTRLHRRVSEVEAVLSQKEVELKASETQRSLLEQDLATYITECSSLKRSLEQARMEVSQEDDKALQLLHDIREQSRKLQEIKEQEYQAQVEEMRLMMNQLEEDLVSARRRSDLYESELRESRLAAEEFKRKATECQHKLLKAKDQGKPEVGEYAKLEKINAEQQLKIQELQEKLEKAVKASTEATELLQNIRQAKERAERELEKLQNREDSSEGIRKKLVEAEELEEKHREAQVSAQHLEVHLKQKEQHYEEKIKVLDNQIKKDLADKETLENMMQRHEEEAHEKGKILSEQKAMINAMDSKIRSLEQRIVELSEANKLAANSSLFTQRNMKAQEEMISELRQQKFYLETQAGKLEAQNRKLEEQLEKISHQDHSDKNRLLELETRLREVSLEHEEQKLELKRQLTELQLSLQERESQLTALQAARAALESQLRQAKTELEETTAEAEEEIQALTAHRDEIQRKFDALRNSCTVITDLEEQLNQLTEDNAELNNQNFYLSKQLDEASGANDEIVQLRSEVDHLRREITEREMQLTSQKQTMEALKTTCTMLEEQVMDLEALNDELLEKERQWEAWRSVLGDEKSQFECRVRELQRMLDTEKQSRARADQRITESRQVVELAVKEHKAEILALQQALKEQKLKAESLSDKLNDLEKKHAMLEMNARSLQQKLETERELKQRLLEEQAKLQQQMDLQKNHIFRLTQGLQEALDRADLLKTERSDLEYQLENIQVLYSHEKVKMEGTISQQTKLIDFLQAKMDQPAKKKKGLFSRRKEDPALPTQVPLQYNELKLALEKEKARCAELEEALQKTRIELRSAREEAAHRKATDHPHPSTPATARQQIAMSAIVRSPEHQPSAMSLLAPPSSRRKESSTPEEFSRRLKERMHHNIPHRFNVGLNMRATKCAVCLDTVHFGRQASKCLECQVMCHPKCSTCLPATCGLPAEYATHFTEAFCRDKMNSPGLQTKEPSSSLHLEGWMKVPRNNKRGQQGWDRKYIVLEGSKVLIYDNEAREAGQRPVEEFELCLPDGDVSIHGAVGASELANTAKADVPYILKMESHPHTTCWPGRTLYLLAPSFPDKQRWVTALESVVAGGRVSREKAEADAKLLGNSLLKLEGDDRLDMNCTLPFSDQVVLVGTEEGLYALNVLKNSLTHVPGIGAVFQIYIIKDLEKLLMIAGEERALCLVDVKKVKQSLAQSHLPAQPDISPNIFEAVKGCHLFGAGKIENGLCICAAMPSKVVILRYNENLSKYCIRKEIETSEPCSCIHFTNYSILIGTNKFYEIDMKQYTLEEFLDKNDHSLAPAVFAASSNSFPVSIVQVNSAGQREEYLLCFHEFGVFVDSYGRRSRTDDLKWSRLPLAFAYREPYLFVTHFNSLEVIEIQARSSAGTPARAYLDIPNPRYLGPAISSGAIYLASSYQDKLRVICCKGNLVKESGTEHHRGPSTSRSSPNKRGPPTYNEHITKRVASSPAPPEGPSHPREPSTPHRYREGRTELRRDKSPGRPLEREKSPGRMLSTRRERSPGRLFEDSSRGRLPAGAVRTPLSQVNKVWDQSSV

Compound: Cc1cc2c(-c3ccc(NC(=O)[C@H](N)CC(C)(C)C)cc3C)cncc2[nH]1 [6-Azaindole Control, reference compound]
pIC50 (Citron kinase; biochemical assay described in Example 3, read-out: IC50): < 5.52
NanoBRET IC50 (nM) [1, 2]: No binding
KD (nM)* ([1]; in-cell KD from IC50 by Cheng-Prussoff, [Tracer K10] = 1 μM, KD Tracer K10 = 0.23 μM): No binding

Compound: Cc1cc(NC(=O)[C@H](N)C(C)(C)C)ccc1-c1ccnc2[nH]ccc12 [Compound F-59, (2R)-2-Amino-3,3-dimethyl-N-[3-methyl-4-(1H-pyrrolo[2,3-b]pyridin-4-yl)phenyl]butanamide]
pIC50 (Citron kinase; [3]): 7.31
pIC50 (IKKβ): < 5.52
pIC50 (PKAα): 6.50
pIC50 (ROCK-2): 6.26

Compound: Cc1cc2c(-c3ccc(NC(=O)[C@@H](N)[C@H](O)C(C)C)cc3C)ccnc2[nH]1 [Compound F-161, (2S,3R)-2-Amino-3-hydroxy-4-methyl-N-[3-methyl-4-(2-methyl-1H-pyrrolo[2,3-b]pyridin-4-yl)phenyl]pentanamide]
pIC50 (Citron kinase; [3]): 7.72
Kd [1]: 4.3 nM
pIC50 [1, 2]: 7.64

Compound: Cc1cc2c(-c3ccc(NC(=O)[C@H](N)[C@@H](O)C(C)C)cc3C)ccnc2[nH]1 [Compound F-162, (2R,3S)-2-Amino-3-hydroxy-4-methyl-N-[3-methyl-4-(2-methyl-1H-pyrrolo[2,3-b]pyridin-4-yl)phenyl]pentanamide]
pIC50 (Citron kinase; [3]): 8.30
Kd [1]: 1.9 nM
pIC50 [1, 2]: 8.00

Compound: Cc1cc(NC(=O)[C@H](N)C(C)(C)O)ccc1-c1ccnc2[nH]c(C(F)F)cc12 [Compound F-139, (2R)-2-Amino-N-[4-[2-(difluoromethyl)-1H-pyrrolo[2,3-b]pyridin-4-yl]-3-methyl-phenyl]-3-hydroxy-3-methyl-butanamide]
pIC50 (Citron kinase; [3]): 6.82

Compound: N[C@@H](Cc1ccccc1)C(=O)Nc1ccc(-c2ccnc3[nH]ccc23)c(C(F)(F)F)c1 [Compound F-129, (2S)-2-Amino-3-phenyl-N-[4-(1H-pyrrolo[2,3-b]pyridin-4-yl)-3-(trifluoromethyl)phenyl]propanamide]
pIC50 (Citron kinase; [3]): 5.52

Compound: Cc1cc2c(-c3ccc(NC(=O)[C@@H](N)C(C)(C)C)cc3)ccnc2[nH]1 [Compound F-51, (2S)-2-Amino-3,3-dimethyl-N-[4-(2-methyl-1H-pyrrolo[2,3-b]pyridin-4-yl)phenyl]butanamide]
pIC50 (Citron kinase; [3]): 6.44

Compound: Cc1c(-c2ccnc3[nH]c(C(F)(F)F)cc23)ccc(NC(=O)[C@H](N)CC(C)(C)C)c1F [Compound F-147, (2R)-2-Amino-N-[2-fluoro-3-methyl-4-[2-(trifluoromethyl)-1H-pyrrolo[2,3-b]pyridin-4-yl]phenyl]-4,4-dimethyl-pentanamide]
pIC50 (Citron kinase; [3]): 7.62

Compound: N[C@H](Cc1ccccc1)C(=O)Nc1cccc(-c2ccnc3[nH]ccc23)c1 [Compound F-134, (2R)-2-Amino-3-phenyl-N-[3-(1H-pyrrolo[2,3-b]pyridin-4-yl)phenyl]propanamide]
pIC50 (Citron kinase; [3]): 7.19

Compound: CCc1c[nH]c2nccc(-c3ccc(NC(=O)[C@H](N)Cc4ccccc4)cc3)c12 [Compound F-136, (2R)-2-Amino-N-[4-(3-ethyl-1H-pyrrolo[2,3-b]pyridin-4-yl)phenyl]-3-phenyl-propanamide]
pIC50 (Citron kinase; [3]): 5.90

Compound: Cc1cc(NC(=O)[C@H](N)CC(C)C)ccc1-c1ccnc2[nH]c(C(F)F)cc12 [Compound F-101, (2R)-2-Amino-N-[4-[2-(difluoromethyl)-1H-pyrrolo[2,3-b]pyridin-4-yl]-3-methyl-phenyl]-4-methyl-pentanamide]
pIC50 (Citron kinase; [3]): 7.74

Compound: Cc1cc(NC(=O)[C@H](N)C(C)(C)C)cc(C)c1-c1ccnc2[nH]ccc12 [Compound F-138, (2R)-2-Amino-N-[3,5-dimethyl-4-(1H-pyrrolo[2,3-b]pyridin-4-yl)phenyl]-3,3-dimethyl-butanamide]
pIC50 (Citron kinase; [3]): 5.52

Compound: Cc1cc2c(-c3ccc(NC(=O)[C@@H](N)CC(C)(C)C)cc3C)ccnc2[nH]1 [Compound F-158, (2S)-2-Amino-4,4-dimethyl-N-[3-methyl-4-(2-methyl-1H-pyrrolo[2,3-b]pyridin-4-yl)phenyl]pentanamide]
pIC50 (Citron kinase; [3]): 6.90

Compound: CN(C)CC(=O)Nc1ccc(-c2ccnc3[nH]ccc23)cc1 [Compound F-3, 2-(Dimethylamino)-N-[4-(1H-pyrrolo[2,3-b]pyridin-4-yl)phenyl]acetamide]
pIC50 (Citron kinase; [3]): 5.98

Compound: Cc1cc2c(-c3ccc(NC(=O)C(N)C(O)C(C)(C)C)cc3C)ccnc2[nH]1 (centres unmarked) [Compound F-160, 2-Amino-3-hydroxy-4,4-dimethyl-N-[3-methyl-4-(2-methyl-1H-pyrrolo[2,3-b]pyridin-4-yl)phenyl]pentanamide]
pIC50 (Citron kinase; [3]): 7.54

Compound: N[C@H](CCC(F)(F)F)C(=O)Nc1ccc(-c2ccnc3[nH]ccc23)cc1 [Compound F-24, (2R)-2-Amino-5,5,5-trifluoro-N-[4-(1H-pyrrolo[2,3-b]pyridin-4-yl)phenyl]pentanamide]
pIC50 (Citron kinase; [3]): 7.18

Further lines, results first:

pIC50 (IKKβ): 6.91
pIC50 (PKAα): < 5.52
pIC50 (ROCK-2): < 5.52
Compound: Cc1cc2c(-c3ccc(NC(=O)[C@H](N)CC(C)C)cc3)ccnc2[nH]1 [Compound F-48, (2R)-2-Amino-4-methyl-N-[4-[2-methyl-1H-pyrrolo[2,3-b]pyridin-4-yl]phenyl]pentanamide]

pIC50 (IKKβ): < 5.52
pIC50 (PKAα): 7.09
pIC50 (ROCK-2): 6.98
Compound: Cc1cc(NC(=O)[C@H](N)CC(C)C)ccc1-c1ccnc2[nH]ccc12 [Compound F-58, (2R)-2-Amino-4-methyl-N-[3-methyl-4-(1H-pyrrolo[2,3-b]pyridin-4-yl)phenyl]pentanamide]

pIC50 (IKKβ): 6.08
pIC50 (PKAα): 7.59
pIC50 (ROCK-2): 7.92
Compound: COc1cc(-c2ccnc3[nH]ccc23)ccc1NC(=O)[C@H](N)CC(C)C [Compound F-77, (2R)-2-Amino-N-[2-methoxy-4-(1H-pyrrolo[2,3-b]pyridin-4-yl)phenyl]-4-methyl-pentanamide]

pIC50 (IKKβ): 6.63
pIC50 (PKAα): 9.00
pIC50 (ROCK-2): 7.19
Compound: CC(C)(C)[C@@H](N)C(=O)Nc1ccc(-c2ccnc3[nH]ccc23)cc1 [Compound F-13, (2R)-2-Amino-3,3-dimethyl-N-[4-(1H-pyrrolo[2,3-b]pyridin-4-yl)phenyl]butanamide]

pIC50 (Citron kinase; [3]): 7.43
pIC50 (IKKβ): 5.64
pIC50 (PKAα): 7.37
pIC50 (ROCK-2): 7.31
Compound: CC(C)C[C@@H](N)C(=O)Nc1ccc(-c2ccnc3[nH]ccc23)cc1F [Compound F-70, (2R)-2-Amino-N-[2-fluoro-4-(1H-pyrrolo[2,3-b]pyridin-4-yl)phenyl]-4-methyl-Pentanamide]

pIC50 (IKKβ): 6.46
pIC50 (PKAα): 8.22
pIC50 (ROCK-2): 7.96
Compound: CN[C@H](CC(C)C)C(=O)Nc1ccc(-c2ccnc3[nH]ccc23)cc1 [Compound F-41, (2R)-4-Methyl-2-(methylamino)-N-[4-(1H-pyrrolo[2,3-b]pyridin-4-yl)phenyl]pentanamide]

pIC50 (Citron kinase; [3]): 6.17
Compound: CC(C)C[C@@H](NCC1CC1)C(=O)Nc1ccc(-c2ccnc3[nH]ccc23)cc1 [Compound F-45, (2R)-2-(Cyclopropymethylamino)-4-methyl-N-[4-[1H-pyrrolo[2,3-b]pyridin-4-yl]phenyl]pentanamide]

pIC50 (Citron kinase; [3]): 6.26
Compound: CC(C)C[C@@H](NC1CC1)C(=O)Nc1ccc(-c2ccnc3[nH]ccc23)cc1 [Compound F-44, (2R)-2-(Cyclopropylamino)-4-methyl-N-[4-(1H-pyrrolo[2,3-b]pyridin-4-yl)phenyl]pentanamide]

pIC50 (Citron kinase; [3]): 5.61
Compound: COCCC(N)C(=O)Nc1ccc(-c2ccnc3[nH]ccc23)cc1 (centres unmarked) [Compound F-26, 2-Amino-4-methoxy-N-[4-(1H-pyrrolo[2,3-b]pyridin-4-yl)phenyl]butanamide]
